Results on 1 molecule are retold here after patent publication US9962329B2, “Cosmetic use of the combination of a carob germ extract and caffeine as a slimming active agent” (ISP INVESTMENTS INC., priority 2012, dated 2018).

One assay relates to aquaglyceroporin 7. Nature of the assay: Immuno-detection of aquaglyceroporin 7 expression in differentiated 3T3-L1 adipocyte cells. It is filed as cell-based. To be noted: differentiated 3T3-L1 cells; with respect to untreated control; carob extract 1% daily for 12 days, caffeine 2 mM for 5 hours. On the procedure:
3T3-L1 adipocyte cells are cultivated in a DMEM medium with 4.5 g/l glucose, 2 mM glutamine and 10% fetal bovine serum. Two days after the cell confluence phase, the differentiation of 3T3-L1 cells into adipocytes is induced by adding a solution of 0.5 mM of IBMX, 1 μM of dexamethasone and 10 μg/ml of insulin (Sigma, St. Louis, Mo., USA) in the culture medium for 3 days. Then, only the insulin is kept for 3 to 4 days of additional culture. The cells are then kept in culture, in a standard medium, for another 3 days. The treatment is performed from the start of the differentiation induction phase by a daily application, for 12 days, of 1×PBS (Lonza, Rockland, Me., USA) for the untreated control, carob germ extract with a dry weight of 2.5 g/kg as obtained in example 1, diluted to 1% in PBS, or carob germ extract as obtained in example 1, diluted to 1% in PBS and to which 2 mM of caffeine is added for the last 5 hours of the treatment. A 5-hour treatment with 2 mM of caffeine was also performed. […] The cell membranes are permeabilized with acetone for 4 minutes at -20° C. The non-specific sites are saturated with 3% bovine serum albumin (Sigma-Aldrich, […], Germany) for 15 minutes. […] Three images for each condition are analyzed using the Image-Pro Analyzer 6.3 software. […]

Assay [1] deals with differentiated 3T3-L1 adipocyte cells. In words: Nile Red detection of lipid droplets (intensity, size, number) in adipocytes. The format is cell-based. The method, then:
The culture, the differentiation of 3T3-L1 cells, then the treatment with the compounds to be tested are performed as in example 2. The lipid detection is performed using Nile Red fluorescent stain, a phenoxazone that intensely labels the intracellular lipids. The color of the fluorescence observed is directly dependent upon the hydrophobicity of the surrounding medium. This specific property of Nile Red makes it possible to differentiate neutral lipids, labeled in gold-yellow, from phospholipids, labeled in red. […] The cells are examined with the fluorescence microscope. The quantification and statistical analysis are performed as in example 2.

Where [2] appears, read: with respect to untreated cells.

With `Cn1c(=O)c2c(ncn2C)n(C)c1=O` [Caffeine, caffeine], the “increase in fluorescence (aquaglyceroporin 7 immunolabeling)” value with aquaglyceroporin 7 was 12.6%. Besides, in assay [1] (differentiated 3T3-L1 cells), the Average droplet size is given as 109.55 μm^2 and the Number of droplets is on record as 219. The “Intensity of the Nile Red labeling, Ratio” value in assay [1] (differentiated 3T3-L1 cells, carob extract 1% 12 days, caffeine 2 mM 5 hours) is on record as 180.47 Pixels/μm^2. The “intensity of the Nile Red labeling, size and number of droplets (in words)” value in assay [1] (with respect to the untreated cells) is recorded as “reduced”. Besides, in assay [1] (setting [2]), the “Droplet size, % reduction” value is on record as −17.40%; the “Intensity of the Nile Red labeling, % reduction” value is reported as −37.36%; the “Number of droplets, % reduction” value is −18%.
